Measured values as given in patent publication US12485132B2, “GPX4 inhibitors and senolytic compounds and uses thereof” (Rubedo Life Sciences, Inc., priority 2023, dated 2025).

Assays:
senescent HEPG2 cells = test: Senescence assay: viability of senescent HEPG2 cells; type: cell-based; details: Homo sapiens, 24-72 hours incubation, viability by CellTiter-Glo or XTT, read-out: Absolute IC50 average HEPG2_SEN IC50
Summary of the method: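 A549 and HEPG2 cells made senescent by sublethal chemotherapy (bleomycin, gemcitabine, doxorubicin or 5-fluorouridine) plus recovery, verified by low EdU and high SA-β-Gal. Ten-point duplicate dosing for 24-72 h; viability by CellTiter-Glo or XTT versus untreated cells; absolute IC50 from four-parameter Hill fit.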

senescent A549 cells = test: Senescence assay: viability of senescent A549 cells; type: cell-based; details: Homo sapiens, 24-72 hours incubation, viability by CellTiter-Glo or XTT, read-out: Absolute IC50 average A549_SEN IC50
Experimental: Cells were maintained in DMEM media (high glucose, 4 mM L-glutamine, no sodium pyruvate) supplemented with 10% fetal bovine serum in a humidified incubator at 37° C. with 5% carbon dioxide. Senescence was induced via treatment with a sublethal concentration of chemotherapy (bleomycin, gemcitabine, doxorubicin, 5-fluorouridine), followed by a rest period without chemotherapy similarly to what is reported by others in the field (e.g., Aoshiba et al., 2003 Eur Respir J 22:436-443). Senescence was qualified by low EdU (5-ethynyl-2′-deoxyuridine) incorporation and high SA-β-Gal (senescence-associated beta-galactosidase) staining compared to proliferating untreated cells. Senescent cells were plated into 96-well plates at a density of 5-15,000 cells/well. The next day, compounds were added in duplicate across ten different concentrations spanning roughly four Log10 units. Cells were incubated with the compounds for 24-72 hours, at which point viability was quantified using CellTiter-Glo (Promega) or XTT (R&D Systems). The viability for treated cells was determined relative to untreated control cells. The log of the compound concentration vs. normalized mean viability was fit to a four parameters Hill function with variable slope. The bottom was constrained to be greater than zero. The X mean value for Y=50 was interpolated to determine the absolute IC50. The results in Table 2 indicate that many of the compounds are active in cells and can induce a dose dependent decrease in the viability of senescent HEPG2 and A549 cells.

[1] = system: senescent normal human dermal fibroblasts; test: Rescue of compound-induced cell death by ferrostatin-1 in senescent fibroblasts; type: cell-based; details: compounds at 1.11 μM, ferrostatin-1 at 0.375 and 6 μM; 24 hours; CellTiter-Glo
From the text: Cell death induced by ferroptosis-inducing agents can be characterized by rescuing the cellular response with radical trapping agents that prevent the accumulation of phospholipid hydroperoxides (Stockwell et al., Cell Chem Biol 2020 27 (4): 365-375). As such, ferrostatin-1 was identified as a potent inhibitor of ferroptosis for which a free radical trapping mechanism had been reported (Skouta et al., J Am Chem Soc 2014 136 (12): 4551-6; Zika et al., ACS Cent Sci. 2017 3 (3): 232-243; and Miotto et al., Redox Biol. 2020; 101328). To determine whether compounds 18 and 32 induce ferroptosis in senescent cells, normal human dermal fibroblasts were induced to undergo senescence by treatment with a sublethal concentration of chemotherapy (bleomycin sulfate), followed by a rest period without chemotherapy similarly to previous reports (Aoshiba et al., 2003 3:436-43). Cells were maintained in DMEM media (high glucose, 4 mM L-glutamine, no sodium pyruvate) supplemented with 10% heat-inactivated fetal bovine serum in a humidified incubator at 37° C. with 5% carbon dioxide and 5% oxygen. Cellular senescence was qualified by reduced EdU (5-ethynyl-2′-deoxyuridine) incorporation and increased SA-β-Gal (senescence-associated beta-galactosidase) staining compared to proliferating untreated cells. Senescent fibroblasts were plated into 96-well plates at a density of 10,000 cells per well. The next day, ferrostatin-1 was diluted in cell medium to reach a final concentration of 0.375 and 6 μM and was added to cells. Approximately 30 minutes after the addition of ferrostatin-1, compounds 18 and 32 at 1.11 μM, or the peptidyl transfer inhibitor puromycin at 10 μM were added to cells. Cells were incubated with the compounds for 24 hours, at which point viability was quantified using the CellTiter-Glo assay (Promega). The viability for treated cells was determined relative to untreated control cells.

GPX4 [2] = target: T1, GPX4 (Homo sapiens, UniProt P36969); test: Glutathione peroxidase 4 inhibitor screening assay (Cayman 701880); type: biochemical; design: purchased Cayman Chemical 701880; details: preincubated with GPX4 for 1.5 hours
T1 sequence (P36969 1-197): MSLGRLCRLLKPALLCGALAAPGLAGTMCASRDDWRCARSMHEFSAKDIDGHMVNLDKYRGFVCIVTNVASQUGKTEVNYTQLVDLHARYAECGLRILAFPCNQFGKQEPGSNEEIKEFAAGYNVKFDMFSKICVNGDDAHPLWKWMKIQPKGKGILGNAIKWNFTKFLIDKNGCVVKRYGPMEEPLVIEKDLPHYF
Experimental: Enzymatic activity of (GPX4) was analyzed using for example the glutathione peroxidase 4 inhibitor screening assay (Item No. 701880, Cayman Chemical, Michigan USA), which is designed to identify inhibitors of the GPX4. GPX4 activity can be assessed by using cumene hydroperoxide as the substrate (Lawrence and Bur, Biochem Biophys Res Commun 1976 71 (4): 952). The GPX4 enzyme employs reduced glutathione (GSH) as electron donor. Glutathione disulfide ([…]) which is formed is recycled back to the reduced state by glutathione reductase (EC no. 1.8.1.7) and NADPH. The oxidation of NADPH to NADP+ is accompanied by a decrease in absorbance at 340 nm measured by a UV/vis spectrometer which allows for an indirect assessment of GPX4 activity. In brief, compounds were preincubated with recombinant human GPX4 enzyme for 1.5 hours at room temperature or 37° C. followed by the addition of glutathione reductase, GSH, cumene hydroperoxide and NADPH. Kinetic changes in absorbance were measured. Uninhibited activity was set to 100% activity, and a condition without the addition of GPX4 enzyme was used to estimate complete inhibition of GPX4 activity. ML162, a prototype GPX4 inhibitor (Moosmayer et al., Acta Crystallogr D Struct Biol 2021 77 (Pt 2): 237-248; Shin et al., Free Rad Biol Med 2018 129:454-462) was used as a reference compound titrated from top concentration of 25 μM. All compounds were tested from 25 μm as the top concentration in duplicates with the inhibitory activity of selected compounds results in the GPX4 inhibitor screening assay shown in Table 3.

GPX4 [3] = target: T1, GPX4; test: Competitive binding to GPX4 in A549 cells with biotinylated analog, streptavidin pull-down; type: cell-based; design: host or cells: A549; details: 2 μM for 2 hours before 2 μM compound 21 for 5 hours
Experimental: Binding of compounds 32 and 69 to the target protein GPX4 in cultured cells can be assessed by the use of biotinylated analogs such as compound 21 that retain their cellular activities. Cells or tissue simultaneously or sequentially exposed to compounds 32 and 69 and biotinylated analog 21 can be analyzed for exogenous biotinylated proteins and thereby enables the identification of cellular targets of compounds 32 and 69. The A549 cancer cell line (ATCC) was exposed to 2 μM of compounds 32 and 69 for 2 hours followed by the addition of 2 μM of compound 21 for 5 hours. Cells were collected and lysed by IGEPAL CA-630 and sodium dodecyl sulfate (SDS) in the presence of a protease inhibitor cocktail (4693132001, Roche). The soluble protein fraction was isolated and incubated with Streptavidin Mag Sepharose (28-9857-38, Cytiva) at 4° C. for 16 hours. The streptavidin-unbound fraction was collected allowing for the quantification of the proportion of GPX4 depleted by the biotinylated compound 21 relative to samples not treated with Streptavidin Mag Sepharose. Furthermore, biotinylated proteins were eluted from Streptavidin Mag Sepharose by head-denaturation in the presence of excess biotin (5 mM). […] Chemiluminescent following HRP substrate addition (34580, ThermoFisher) was detected by the ChemiDoc XRS+ System (Bio-Rad). […]

IC50 (senescent HEPG2 cells) [nM] | IC50 (senescent A549 cells) [nM] | inhibition at 0.25 µM (GPX4 [2]; 0.25 μM) [%] | inhibition at 2.5 µM (GPX4 [2]; 2.50 μM) [%] | inhibition at 25 µM (GPX4 [2]; 25.00 μM) [%] | SMILES | inhibition by ferrostatin-1 of compound-induced cell death [1] | effect of pre-treatment on compound 21 dependent depletion of GPX4 protein (GPX4 [3])
0.1 to 10 | 10 to 100 | – | – | – | C#CC(F)(F)[C@]1(O)CC[C@H]2[C@@H]3CCC4=CC(=NOCCO)CCC4=C3[C@@H](c3ccc(C4CC4)cc3)C[C@@]21C [Compound 18, (8S,11R,13S,14S,17S)-11-(4-cyclopropylphenyl)-17-(1,1-difluoroprop-2-yn-1-yl)-17-hydroxy-13-methyl-1,2,6,7,8,11,12,13,14,15,16,17-dodecahydro-3H-cyclopenta[a]phenanthren-3-one O-(2-hydroxyethyl)oxime] | potently inhibits cell death induced by compounds 18 and 32 | –
0.1 to 10 | 0.1 to 10 | 16 | 67 | 74 | C#CC(F)(F)[C@]1(O)CC[C@H]2[C@@H]3CCC4=C/C(=N/NC(=O)NCCO)CCC4=C3[C@H](c3ccc(C4CC4)cc3)C[C@@]21C [Compound 26, (E)-2-((8S,11S,13S,14S,17S)-11-(4-cyclopropylphenyl)-17-(1,1-difluoroprop-2-yn-1-yl)-17-hydroxy-13-methyl-1,2,6,7,8,11,12,13,14,15,16,17-dodecahydro-3H-cyclopenta[a]phenanthren-3-ylidene)-N-(2-hydroxyethyl)hydrazine-1-carboxamide] | – | –
– | – | – | – | – | C#CC(F)(F)[C@]1(O)CC[C@H]2[C@@H]3CCC4=C/C(=N/NC(=O)NC5CC5)CCC4=C3[C@@H](c3ccc(C4CC4)cc3)C[C@@]21C [Compound 69, (E)-N-cyclopropyl-2-((8S,11R,13S,14S,17S)-11-(4-cyclopropylphenyl)-17-(1,1-difluoroprop-2-yn-1-yl)-17-hydroxy-13-methyl-1,2,6,7,8,11,12,13,14,15,16,17-dodecahydro-3H-cyclopenta[a]phenanthren-3-ylidene)hydrazine-1-carboxamide] | – | reduces the compound 21 dependent depletion of GPX4 protein
– | – | – | – | – | CCOC(=O)c1ccc(NC2CCCCC2)c(N)c1 [ferrostatin-1, reference compound] | potently inhibits cell death | –
